In ChEMBL document CHEMBL1147201, “Structural requirements of HDAC inhibitors: SAHA analogs functionalized adjacent to the hydroxamic acid” (Bioorg Med Chem Lett, 2007):

The compounds below were run against Histone deacetylase (assay: Inhibition of HDAC by fluorescent assay).
Format: protein assay, Homo sapiens
For `CCCC(CCCCCC(=O)Nc1ccccc1)C(=O)NO` (configuration not stated), the IC50 was 154 µM. In the case of `CCCCC(CCCCCC(=O)Nc1ccccc1)C(=O)NO` (configuration not stated), the IC50 is reported as 72 µM. Work on `C#CCC(CCCCCC(=O)Nc1ccccc1)C(=O)NO` (configuration not stated) yielded an IC50 of 87 µM. With `CCC(CCCCCC(=O)Nc1ccccc1)C(=O)NO` (configuration not stated) the IC50 was 449 µM. `CC(CCCCCC(=O)Nc1ccccc1)C(=O)NO` (configuration not stated) was tested, and the IC50 was 134 µM. With `O=C(CCCCCC(Cc1ccccc1)C(=O)NO)Nc1ccccc1` (configuration not stated) the IC50 was 226 µM. `C=CCC(CCCCCC(=O)Nc1ccccc1)C(=O)NO` (configuration not stated) gave an IC50 of 144 µM.
